For test [1], the target named is T1, HEK293 cells stably expressing normal human αVβ3 (Homo sapiens, UniProt P05106+P06756).
T1 construct: expressed in transfected cells; host or cells: HEK293
The test can be described thus: αVβ3-mediated cell adhesion to vitronectin. It counts as cell-based. As to the method:
Washed platelets are prepared as per the primary screening assay, suspended in HBMT containing 1 mM MgCl2 (platelet adhesion to collagen) or 2 mM CaCl2/1 mM MgCl2 (platelet adhesion to fibrinogen) and adjusted to a count of 250×10^9/L. HEK293 cells stably expressing normal human αVβ3 or normal human αIIbβ3 are suspended in HBMT containing either 1 mM MgCl2 (HEK293 cells expressing αVβ3 for adhesion to vitronectin) or 2 mM CaCl2/1 mM MgCl2 (HEK293 cells expressing αIIbβ3 for adhesion to fibrinogen); the cell counts are adjusted to 10^6/mL. Polystyrene 96-well microtiter plates (Nunc) are coated with either fibrinogen (50 μg/mL), vitronectin (5 μg/mL), or collagen (33 μg/mL, rat tail type 1; Becton Dickinson) for 1 hour, and blocked with HBMT for at least 1 hour. Platelets and cells are treated with the compound of Example 27 of the current invention or 2-ethyl-7-(piperazin-1-yl)-5H-[1,3,4]thiadiazolo-[3,2-a]pyrimidin-5-one of U.S. Ser. No. 12/514,286 in the presence or absence of anti-α2β1 mAb 6F1, anti-αIIbβ3 mAb 10E5, anti-αIIbβ3 mAb 10E5+αVβ3 mAb 7E3, αVβ3-specific mAb LM609, or anti-αVβ3+αIIbβ3 mAb 7E3, for 15 minutes at 37° C. before being added to the microtiter wells. After adhering for 1 hour at either 22° C. (platelets) or 37° C. (cells), nonadherent platelets or cells are removed by washing 3 times with HBMT containing the same ion composition as the buffer used for adhesion. […] In other experiments, 8-chambered glass coverslips (Nunc) are coated with collagen (33 μg/mL) for 1 hour at 22° C. Washed platelets are allowed to adhere for 1 hour at 22° C. and the coverslips are stained with the Alexa-488-conjugated β3-specific mAb 7H2. Adherent platelets are imaged using a Zeiss LSM-510 confocal system with Axiovert 200 microscope (Carl Zeiss, Heidelberg, Germany) using a Plan-Apochromat 100/1.4 NA oil DIC objective.

Test [2] addresses T2, HEK293 cells stably expressing normal human αIIbβ3 (Homo sapiens, UniProt P05106+P08514).
T2 construct: expressed in transfected cells; host or cells: HEK293
In words: αIIbβ3-mediated cell adhesion to fibrinogen. It counts as cell-based. As to conditions: same concentration as αVβ3 experiments (10 μM), n=4. Here is the method: Washed platelets are prepared as per the primary screening assay, suspended in HBMT containing 1 mM MgCl2 (platelet adhesion to collagen) or 2 mM CaCl2/1 mM MgCl2 (platelet adhesion to fibrinogen) and adjusted to a count of 250×10^9/L. HEK293 cells stably expressing normal human αVβ3 or normal human αIIbβ3 are suspended in HBMT containing either 1 mM MgCl2 (HEK293 cells expressing αVβ3 for adhesion to vitronectin) or 2 mM CaCl2/1 mM MgCl2 (HEK293 cells expressing αIIbβ3 for adhesion to fibrinogen); the cell counts are adjusted to 10^6/mL. Polystyrene 96-well microtiter plates (Nunc) are coated with either fibrinogen (50 μg/mL), vitronectin (5 μg/mL), or collagen (33 μg/mL, rat tail type 1; Becton Dickinson) for 1 hour, and blocked with HBMT for at least 1 hour. Platelets and cells are treated with the compound of Example 27 of the current invention or 2-ethyl-7-(piperazin-1-yl)-5H-[1,3,4]thiadiazolo-[3,2-a]pyrimidin-5-one of U.S. Ser. No. 12/514,286 in the presence or absence of anti-α2β1 mAb 6F1, anti-αIIbβ3 mAb 10E5, anti-αIIbβ3 mAb 10E5+αVβ3 mAb 7E3, αVβ3-specific mAb LM609, or anti-αVβ3+αIIbβ3 mAb 7E3, for 15 minutes at 37° C. before being added to the microtiter wells. After adhering for 1 hour at either 22° C. (platelets) or 37° C. […]

T2 sequence (P08514 32-887 limits assumed): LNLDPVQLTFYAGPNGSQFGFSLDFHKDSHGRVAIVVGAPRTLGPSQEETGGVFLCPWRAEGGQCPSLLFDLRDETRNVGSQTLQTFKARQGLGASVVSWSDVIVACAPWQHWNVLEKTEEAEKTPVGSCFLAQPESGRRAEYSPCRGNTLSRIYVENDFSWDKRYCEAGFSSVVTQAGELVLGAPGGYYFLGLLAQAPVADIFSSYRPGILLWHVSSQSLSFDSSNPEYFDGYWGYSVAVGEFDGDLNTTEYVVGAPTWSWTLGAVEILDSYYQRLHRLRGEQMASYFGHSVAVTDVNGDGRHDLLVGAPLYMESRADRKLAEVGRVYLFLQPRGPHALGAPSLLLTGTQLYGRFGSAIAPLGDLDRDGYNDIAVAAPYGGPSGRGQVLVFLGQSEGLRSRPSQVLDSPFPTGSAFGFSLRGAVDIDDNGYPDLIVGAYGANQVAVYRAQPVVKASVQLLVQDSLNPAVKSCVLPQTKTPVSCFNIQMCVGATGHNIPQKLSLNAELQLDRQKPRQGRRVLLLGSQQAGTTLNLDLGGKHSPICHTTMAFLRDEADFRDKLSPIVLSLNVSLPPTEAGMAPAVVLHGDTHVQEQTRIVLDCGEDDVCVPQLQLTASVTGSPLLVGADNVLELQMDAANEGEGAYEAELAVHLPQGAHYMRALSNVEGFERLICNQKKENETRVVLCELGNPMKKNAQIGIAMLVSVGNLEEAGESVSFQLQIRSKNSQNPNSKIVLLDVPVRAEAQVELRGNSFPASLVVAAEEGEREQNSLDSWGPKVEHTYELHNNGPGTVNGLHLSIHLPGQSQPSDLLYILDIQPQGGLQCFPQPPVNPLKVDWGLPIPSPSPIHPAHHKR
T2 sequence (P08514 891-1039 partner limits assumed): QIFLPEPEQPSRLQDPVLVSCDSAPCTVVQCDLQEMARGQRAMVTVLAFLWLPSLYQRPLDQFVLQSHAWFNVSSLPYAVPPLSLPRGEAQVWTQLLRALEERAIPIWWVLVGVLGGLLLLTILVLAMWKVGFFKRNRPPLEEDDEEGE
T2 sequence (P05106 27-788): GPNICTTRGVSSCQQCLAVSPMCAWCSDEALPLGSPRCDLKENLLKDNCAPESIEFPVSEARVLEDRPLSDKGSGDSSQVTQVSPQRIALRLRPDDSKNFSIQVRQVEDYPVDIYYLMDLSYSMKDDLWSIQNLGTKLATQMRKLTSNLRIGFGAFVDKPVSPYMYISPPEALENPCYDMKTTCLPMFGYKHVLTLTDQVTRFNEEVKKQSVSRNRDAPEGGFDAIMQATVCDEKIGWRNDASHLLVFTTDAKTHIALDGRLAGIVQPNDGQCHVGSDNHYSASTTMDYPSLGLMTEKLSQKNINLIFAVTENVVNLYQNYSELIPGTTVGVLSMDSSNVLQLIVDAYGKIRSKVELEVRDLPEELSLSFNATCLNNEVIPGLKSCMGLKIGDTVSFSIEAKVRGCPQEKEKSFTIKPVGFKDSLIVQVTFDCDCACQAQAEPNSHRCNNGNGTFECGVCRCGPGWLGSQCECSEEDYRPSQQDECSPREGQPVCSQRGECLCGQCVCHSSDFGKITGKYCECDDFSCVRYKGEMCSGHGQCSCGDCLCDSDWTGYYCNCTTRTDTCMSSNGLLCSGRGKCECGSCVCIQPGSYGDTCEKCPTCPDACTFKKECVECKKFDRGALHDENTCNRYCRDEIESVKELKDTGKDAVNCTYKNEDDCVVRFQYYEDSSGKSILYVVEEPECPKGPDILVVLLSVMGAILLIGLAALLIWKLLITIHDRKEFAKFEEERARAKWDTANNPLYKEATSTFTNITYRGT
T1 sequence (P06756 31-889 limits assumed): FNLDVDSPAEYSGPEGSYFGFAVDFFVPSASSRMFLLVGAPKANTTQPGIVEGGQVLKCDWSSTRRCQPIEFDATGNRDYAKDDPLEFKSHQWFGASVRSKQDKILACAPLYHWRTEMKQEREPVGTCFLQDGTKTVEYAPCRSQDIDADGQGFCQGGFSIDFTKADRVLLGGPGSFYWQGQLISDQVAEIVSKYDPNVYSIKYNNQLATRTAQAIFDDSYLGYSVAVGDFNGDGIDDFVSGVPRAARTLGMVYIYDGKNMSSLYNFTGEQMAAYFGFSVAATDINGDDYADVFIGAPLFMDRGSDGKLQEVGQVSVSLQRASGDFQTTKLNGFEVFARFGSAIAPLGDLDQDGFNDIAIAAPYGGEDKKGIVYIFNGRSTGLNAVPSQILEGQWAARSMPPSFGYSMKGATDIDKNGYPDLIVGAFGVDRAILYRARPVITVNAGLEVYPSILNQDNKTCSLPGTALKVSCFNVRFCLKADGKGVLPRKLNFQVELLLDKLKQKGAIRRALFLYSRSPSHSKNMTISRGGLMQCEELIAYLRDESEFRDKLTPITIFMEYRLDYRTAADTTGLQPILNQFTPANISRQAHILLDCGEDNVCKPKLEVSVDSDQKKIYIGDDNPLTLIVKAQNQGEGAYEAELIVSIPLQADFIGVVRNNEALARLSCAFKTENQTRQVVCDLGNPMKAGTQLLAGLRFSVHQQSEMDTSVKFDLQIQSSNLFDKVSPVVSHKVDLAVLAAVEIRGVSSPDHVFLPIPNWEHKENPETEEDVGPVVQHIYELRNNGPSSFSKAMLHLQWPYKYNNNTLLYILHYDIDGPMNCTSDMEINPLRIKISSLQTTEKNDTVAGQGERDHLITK
T1 sequence (P06756 891-1048 partner limits assumed): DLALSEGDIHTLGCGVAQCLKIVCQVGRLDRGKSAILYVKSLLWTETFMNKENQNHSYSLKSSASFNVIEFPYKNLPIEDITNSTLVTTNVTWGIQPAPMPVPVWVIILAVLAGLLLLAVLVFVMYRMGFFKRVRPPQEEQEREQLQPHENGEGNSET
T1 sequence (P05106 27-788): as the sequence (P05106 27-788) above

The inhibition is how much of the control response was suppressed. Read a low inhibition as a response near the control. As for `NCC(=O)Nc1cccc(-c2nn3c(=O)cc(N4CCNCC4)nc3s2)c1` [Example 27, 2-amino-N-(3-(5-oxo-7-(piperazin-1-yl)-5H-[1,3,4]thiadiazolo[3,2-a]pyrimidin-2-yl)phenyl)acetamide], the “selectivity for αIIbβ3 compared to αVβ3” value in test [1] was “selective for αIIbβ3 compared to αVβ3”. The same compound registered an inhibition at 10 µM in test [2] of 65 ± 5%.

(Values after patent publication US9066948B2, “Oxadiazolo[3,2-a]pyrimidines and thiadiazolo[3,2-a]pyrimidines” (THE UNITED STATES OF AMERICA AS REPRESENTED BY THE …, priority 2010, dated 2015).)
